Reference: patent US20210198256A1, “COMPOUNDS FOR THE DEGRADATION OF BRD9 OR MTH1” (C4 Therapeutics, Inc., priority 2018, published 2021)

Tested on: SMARTCAR-MTH1-wt-HiBiT (Jurkat.7 cells)
Experiment: HiBit Lytic Assay (HiBit DC50, MTH1 degraders of Table 2)
Format: cell-based, human
Conditions: Jurkat.7 SMARTCAR-MTH1-wt-HiBiT cells, compound treatment time 4 hr, 11-point half log dose response
How it was run: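 Jurkat.7 cells expressing SMARTCAR-MTH1-wt-HiBiT were treated at 37° C with 11-point half-log dilutions (top final 1000 nM or 833 nM, duplicates, 0.1% DMSO). Remaining HiBiT-tagged protein was read by Nano-Glo HiBiT lytic luminescence, normalized to media-only and DMSO controls.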

SMILES | DC50 [nM]
CNc1c(C(=O)NC2CC2)cnc2cc(F)c(-c3ccc(C(=O)NCCCCn4cc(CNc5cccc6c5C(=O)N(C5CCC(=O)NC5=O)C6=O)nn4)c(F)c3)cc12 (centres unmarked) [Compound 411, N-cyclopropyl-6-[4-[4-[4-[[[2-(2,6-dioxo-3-piperidyl)-1,3-dioxo-isoindolin-4-yl]amino]methyl]triazol-1-yl]butylcarbamoyl]-3-fluoro-phenyl]-7-fluoro-4-(methylamino)quinoline-3-carboxamide] | < 100
CNc1c(C(=O)NC2CC2)cnc2cc(F)c(-c3ccc(C(=O)NCCCCn4cc(COc5cccc6c5C(=O)N(C5CCC(=O)NC5=O)C6=O)nn4)c(F)c3)cc12 (centres unmarked) [Compound 412, N-cyclopropyl-6-[4-[4-[4-[[2-(2,6-dioxo-3-piperidyl)-1,3-dioxo-isoindolin-4-yl]oxymethyl]triazol-1-yl]butylcarbamoyl]-3-fluoro-phenyl]-7-fluoro-4-(methylamino)quinoline-3-carboxamide] | < 100
O=C1CCC(N2C(=O)c3cccc(OCc4cn(CCCCNC(=O)c5ccc(-c6cc7c(Nc8ccccc8)c(C(=O)NC8CC8)cnc7cc6F)cc5F)nn4)c3C2=O)C(=O)N1 (centres unmarked) [Compound 413, 4-anilino-N-cyclopropyl-6-[4-[4-[4-[[2-(2,6-dioxo-3-piperidyl)-1,3-dioxo-isoindolin-4-yl]oxymethyl]triazol-1-yl]butylcarbamoyl]-3-fluoro-phenyl]-7-fluoro-quinoline-3-carboxamide] | < 100
COc1cc2ncc(C(=O)NC3CC3)c(Nc3ccccc3)c2cc1-c1ccc(C(=O)NCCCCn2cc(COc3cccc4c3C(=O)N(C3CCC(=O)NC3=O)C4=O)nn2)c(F)c1 (centres unmarked) [Compound 414, 4-anilino-N-cyclopropyl-6-[4-[4-[4-[[2-(2,6-dioxo-3-piperidyl)-1,3-dioxo-isoindolin-4-yl]oxymethyl]triazol-1-yl]butylcarbamoyl]-3-fluoro-phenyl]-7-methoxy-quinoline-3-carboxamide] | < 100
O=C1CCC(N2C(=O)c3cccc(OCc4cn(CCCCNC(=O)c5ccc(-c6cc7c(Nc8ccccc8)c(C(=O)NC8CC8)cnc7cc6C(F)(F)F)cc5F)nn4)c3C2=O)C(=O)N1 (centres unmarked) [Compound 415, 4-anilino-N-cyclopropyl-6-[4-[4-[4-[[2-(2,6-dioxo-3-piperidyl)-1,3-dioxo-isoindolin-4-yl]oxymethyl]triazol-1-yl]butylcarbamoyl]-3-fluoro-phenyl]-7-(trifluoromethyl)quinoline-3-carboxamide] | < 100
CNc1c(C(=O)NC2CC2)cnc2cc(F)c(-c3ccc(C(=O)NCCCCNC(=O)CCc4cccc5c4CN(C4CCC(=O)NC4=O)C5=O)c(F)c3)cc12 (centres unmarked) [Compound 419, N-cyclopropyl-6-[4-[4-[3-[2-(2,6-dioxo-3-piperidyl)-1-oxo-isoindolin-4-yl]propanoylamino]butylcarbamoyl]-3-fluoro-phenyl]-7-fluoro-4-(methylamino)quinoline-3-carboxamide] | < 100
CNc1c(C(=O)NC2CC2)cnc2cc(C(F)(F)F)c(-c3ccc(C(=O)NCCCCn4cc(C5(Nc6cccc7c6C(=O)N(C6CCC(=O)NC6=O)C7=O)CC5)nn4)c(F)c3)cc12 (centres unmarked) [Compound 421, N-cyclopropyl-6-[4-[4-[4-[1-[[2-(2,6-dioxo-3-piperidyl)-1,3-dioxo-isoindolin-4-yl]amino]cyclopropyl]triazol-1-yl]butylcarbamoyl]-3-fluoro-phenyl]-4-(methylamino)-7-(trifluoromethyl)quinoline-3-carboxamide] | < 100
O=C(CNc1cccc2c1C(=O)N(C1CCC(=O)NC1=O)C2=O)NCCCCNC(=O)c1ccc(-c2cc3c(NC45CC(C4)C5)c(C(=O)NC4CC4)cnc3cc2F)cc1F (centres unmarked) [Compound 424, 4-(3-bicyclo[1.1.1]pentanylamino)-N-cyclopropyl-6-[4-[4-[[2-[[2-(2,6-dioxo-3-piperidyl)-1,3-dioxo-isoindolin-4-yl]amino]acetyl]amino]butylcarbamoyl]-3-fluoro-phenyl]-7-fluoro-quinoline-3-carboxamide] | < 100
CC(NC(=O)CCCCNC(=O)CNc1cccc2c1C(=O)N(C1CCC(=O)NC1=O)C2=O)c1ccc(-c2cc3c(Nc4ccccc4)c(C(=O)NC4CC4)cnc3cc2F)cc1F (centres unmarked) [Compound 429, 4-anilino-N-cyclopropyl-6-[4-[1-[5-[[2-[[2-(2,6-dioxo-3-piperidyl)-1,3-dioxo-isoindolin-4-yl]amino]acetyl]amino]pentanoylamino]ethyl]-3-fluoro-phenyl]-7-fluoro-quinoline-3-carboxamide] | < 100
CNc1c(C(=O)NC2CC2)cnc2cc(C(F)(F)F)c(-c3ccc(C(=O)NCCCCn4cc(C(C)Nc5cccc6c5C(=O)N(C5CCC(=O)NC5=O)C6=O)nn4)c(F)c3)cc12 (centres unmarked) [Compound 430, N-cyclopropyl-6-[4-[4-[4-[1-[[2-(2,6-dioxo-3-piperidyl)-1,3-dioxo-isoindolin-4-yl]amino]ethyl]triazol-1-yl]butylcarbamoyl]-3-fluoro-phenyl]-4-(methylamino)-7-(trifluoromethyl)quinoline-3-carboxamide] | < 100
CNc1c(C(=O)NC2CC2)cnc2cc(C(F)(F)F)c(-c3ccc(C(=O)NCCCCn4cc(C(C)Nc5cccc6c5C(=O)N(C5CCC(=O)NC5=O)C6=O)nn4)nc3)cc12 (centres unmarked) [Compound 431, N-cyclopropyl-6-(6-((4-(4-(1-((2-(2,6-dioxopiperidin-3-yl)-1,3-dioxoisoindolin-4-yl)amino)ethyl)-1H-1,2,3-triazol-1-yl)butyl)carbamoyl)pyridin-3-yl)-4-(methylamino)-7-(trifluoromethyl)quinoline-3-carboxamide] | < 1000
COc1cc2ncc(C(=O)NC3CC3)c(Nc3ccccc3)c2cc1-c1ccc(C(=O)NCCCCn2cc(C(C)Nc3cccc4c3C(=O)N(C3CCC(=O)NC3=O)C4=O)nn2)c(F)c1 (centres unmarked) [Compound 432, N-cyclopropyl-6-(4-((4-(4-(1-((2-(2,6-dioxopiperidin-3-yl)-1,3-dioxoisoindolin-4-yl)amino)ethyl)-1H-1,2,3-triazol-1-yl)butyl)carbamoyl)-3-fluorophenyl)-7-methoxy-4-(phenylamino)quinoline-3-carboxamide] | < 100
CC(Nc1cccc2c1C(=O)N(C1CCC(=O)NC1=O)C2=O)c1cn(CCCCNC(=O)c2ccc(-c3cc4c(Nc5ccccc5)c(C(=O)NC5CC5)cnc4cc3F)cc2F)nn1 (centres unmarked) [Compound 433, N-cyclopropyl-6-(4-((4-(4-(1-((2-(2,6-dioxopiperidin-3-yl)-1,3-dioxoisoindolin-4-yl)amino)ethyl)-1H-1,2,3-triazol-1-yl)butyl)carbamoyl)-3-fluorophenyl)-7-fluoro-4-(phenylamino)quinoline-3-carboxamide] | < 100
CC(Nc1cccc2c1C(=O)N(C1CCC(=O)NC1=O)C2=O)c1cn(CCCCNC(=O)c2ccc(-c3cc4c(Nc5ccccc5)c(C(=O)NC5CC5)cnc4cc3C(F)(F)F)cc2F)nn1 (centres unmarked) [Compound 434, N-cyclopropyl-6-(4-((4-(4-(1-((2-(2,6-dioxopiperidin-3-yl)-1,3-dioxoisoindolin-4-yl)amino)ethyl)-1H-1,2,3-triazol-1-yl)butyl)carbamoyl)-3-fluorophenyl)-4-(phenylamino)-7-(trifluoromethyl)quinoline-3-carboxamide] | < 100
